Results: US11969428B2, “Methods and pharmaceutical compositions for treating lymphoid malignancy” (priority 2011, dated 2024)

Tests used:
Assay in all cases: Ambit KinomeScan screening
Format in all cases: binding
Settings in all cases: CAL-130 10 μM
ABL1 = biological target: T1, ABL1 (Homo sapiens, UniProt P00519)
T1 construct: unspecified tag ("tagged kinases"); purchased Ambit (KinomeScan screening)
How it was run: (§1)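 Each kinase, carrying a tag, was challenged to bind immobilized bait while CAL-130 was present (10 μM). Reported numbers are percent of the control signal, lower indicating tighter compound binding.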

ABL1(M351T) = biological target: T2, ABL1(M351T) (Homo sapiens, UniProt P00519, M351T)
T2 construct: unspecified tag ("tagged kinases"); purchased Ambit (KinomeScan screening)
How it was run: as §1

AKT1 = biological target: T3, AKT1 (Homo sapiens, UniProt P31749)
T3 construct: purchased Ambit (KinomeScan screening)
How it was run: as §1

BIKE = biological target: T4, BIKE (Homo sapiens, UniProt Q9NSY1)
T4 construct: purchased Ambit (KinomeScan screening service)
How it was run: as §1

BMPR1A = biological target: T5, BMPR1A (Homo sapiens, UniProt P36894)
T5 construct: purchased Ambit (KinomeScan screening service)
How it was run: as §1

BRAF = biological target: T6, BRAF (Homo sapiens, UniProt P15056)
T6 construct: unspecified tag ("tagged kinases"); purchased Ambit (KinomeScan screening)
How it was run: as §1

CDK8 = biological target: T7, CDK8 (Homo sapiens, UniProt P49336)
T7 construct: purchased Ambit (KinomeScan screening service)
How it was run: as §1

CSNK1D = biological target: T8, CSNK1D (Homo sapiens, UniProt P48730)
T8 construct: purchased Ambit (KinomeScan screening service)
How it was run: as §1

CSNK1E = biological target: T9, CSNK1E (Homo sapiens, UniProt P49674)
T9 construct: purchased Ambit (KinomeScan screening service)
How it was run: as §1

CSNK1G1 = biological target: T10, CSNK1G1 (Homo sapiens, UniProt Q9HCP0)
T10 construct: purchased Ambit (KinomeScan screening service)
How it was run: as §1

DYRK1B = biological target: T11, DYRK1B (Homo sapiens, UniProt Q9Y463)
T11 construct: unspecified tag ("tagged kinases"); purchased Ambit (KinomeScan screening service)
How it was run: as §1

EGFR(E746-A750DEL) = biological target: T12, EGFR(E746-A750DEL) (Homo sapiens, UniProt P00533, DEL746-750)
T12 construct: unspecified tag; purchased Ambit (KinomeScan screening service)
How it was run: as §1

EPHB4 = biological target: T13, EPHB4 (Homo sapiens, UniProt P54760)
T13 construct: purchased Ambit (KinomeScan screening service)
How it was run: as §1

ERBB2 = biological target: T14, ERBB2 (Homo sapiens, UniProt P04626)
T14 construct: purchased Ambit (KinomeScan screening service)
How it was run: as §1

ERK1 = biological target: T15, ERK1 (Homo sapiens, UniProt P27361)
T15 construct: unspecified tag ("tagged kinases"); purchased Ambit (KinomeScan screening service)
How it was run: as §1

ERK8 = biological target: T16, ERK8 (Homo sapiens, UniProt Q8TD08)
T16 construct: unspecified tag ("tagged kinases"); purchased Ambit (KinomeScan screening service)
How it was run: as §1

FER = biological target: T17, FER (Homo sapiens, UniProt P16591)
T17 construct: unspecified tag ("tagged kinases"); purchased Ambit (KinomeScan screening service)
How it was run: as §1

FGFR1 = biological target: T18, FGFR1 (Homo sapiens, UniProt P11362)
T18 construct: unspecified tag; purchased Ambit (KinomeScan screening service)
How it was run: as §1

FGFR2 = biological target: T19, FGFR2 (Homo sapiens, UniProt P21802)
T19 construct: unspecified tag; purchased Ambit (KinomeScan screening service)
How it was run: as §1

MARK3 = biological target: T20, MARK3 (Homo sapiens, UniProt P27448)
T20 construct: purchased Ambit (KinomeScan screening)
How it was run: as §1

MEK1 = biological target: T21, MEK1 (Homo sapiens, UniProt Q02750)
T21 construct: purchased Ambit (KinomeScan screening)
How it was run: as §1

MST1 = biological target: T22, MST1 (Homo sapiens, UniProt Q13043)
T22 construct: unspecified tag ('tagged kinases'); purchased Ambit (KinomeScan screening)
How it was run: as §1

MST3 = biological target: T23, MST3 (Homo sapiens, UniProt Q9Y6E0)
T23 construct: unspecified tag; purchased Ambit (KinomeScan screening panel)
How it was run: as §1

NDR1 = biological target: T24, NDR1 (Homo sapiens, UniProt Q15208)
T24 construct: unspecified tag; purchased Ambit (KinomeScan screening panel)
How it was run: as §1

PAK6 = biological target: T25, PAK6 (Homo sapiens, UniProt Q9NQU5)
T25 construct: tag (kind not specified); purchased Ambit (KinomeScan screening service)
How it was run: as §1

PIK3CA = biological target: T26, PIK3CA (Homo sapiens, UniProt P42336)
T26 construct: unspecified tag; purchased Ambit (KinomeScan screening panel)
How it was run: as §1

PLK2 = biological target: T27, PLK2 (Homo sapiens, UniProt Q9NYY3)
T27 construct: purchased Ambit (KinomeScan screening service)
How it was run: as §1

PRKCH = biological target: T28, PRKCH (Homo sapiens, UniProt P24723)
T28 construct: purchased Ambit (KinomeScan screening service)
How it was run: as §1

PRKR = biological target: T29, PRKR (Homo sapiens, UniProt P19525)
T29 construct: tag (kind not specified); purchased Ambit (KinomeScan screening service)
How it was run: as §1

ROCK1 = biological target: T30, ROCK1 (Homo sapiens, UniProt Q13464)
T30 construct: unspecified tag (tagged kinase); purchased Ambit (KinomeScan screening)
How it was run: as §1

ROS1 = biological target: T31, ROS1 (Homo sapiens, UniProt P08922)
T31 construct: unspecified tag (tagged kinase); purchased Ambit (KinomeScan screening)
How it was run: as §1

SRPK1 = biological target: T32, SRPK1 (Homo sapiens, UniProt Q96SB4)
T32 construct: tag, kind not specified; purchased Ambit (KinomeScan screening service)
How it was run: as §1

SRPK3 = biological target: T33, SRPK3 (Homo sapiens, UniProt Q9UPE1)
T33 construct: purchased Ambit (KinomeScan screening service)
How it was run: as §1

TAO1 = biological target: T34, TAO1 (Homo sapiens, UniProt Q9UL54)
T34 construct: tag (kind not specified); purchased Ambit (KinomeScan screening service)
How it was run: as §1

TRKA = biological target: T35, TRKA (Homo sapiens, UniProt P04629)
T35 construct: unspecified tag (tagged kinase); purchased Ambit (KinomeScan screening)
How it was run: as §1

VEGFR2 = biological target: T36, VEGFR2 (Homo sapiens, UniProt P35968)
T36 construct: tag, kind not specified; purchased Ambit (KinomeScan screening service)
How it was run: as §1

T26 sequence (P42336 whole entry): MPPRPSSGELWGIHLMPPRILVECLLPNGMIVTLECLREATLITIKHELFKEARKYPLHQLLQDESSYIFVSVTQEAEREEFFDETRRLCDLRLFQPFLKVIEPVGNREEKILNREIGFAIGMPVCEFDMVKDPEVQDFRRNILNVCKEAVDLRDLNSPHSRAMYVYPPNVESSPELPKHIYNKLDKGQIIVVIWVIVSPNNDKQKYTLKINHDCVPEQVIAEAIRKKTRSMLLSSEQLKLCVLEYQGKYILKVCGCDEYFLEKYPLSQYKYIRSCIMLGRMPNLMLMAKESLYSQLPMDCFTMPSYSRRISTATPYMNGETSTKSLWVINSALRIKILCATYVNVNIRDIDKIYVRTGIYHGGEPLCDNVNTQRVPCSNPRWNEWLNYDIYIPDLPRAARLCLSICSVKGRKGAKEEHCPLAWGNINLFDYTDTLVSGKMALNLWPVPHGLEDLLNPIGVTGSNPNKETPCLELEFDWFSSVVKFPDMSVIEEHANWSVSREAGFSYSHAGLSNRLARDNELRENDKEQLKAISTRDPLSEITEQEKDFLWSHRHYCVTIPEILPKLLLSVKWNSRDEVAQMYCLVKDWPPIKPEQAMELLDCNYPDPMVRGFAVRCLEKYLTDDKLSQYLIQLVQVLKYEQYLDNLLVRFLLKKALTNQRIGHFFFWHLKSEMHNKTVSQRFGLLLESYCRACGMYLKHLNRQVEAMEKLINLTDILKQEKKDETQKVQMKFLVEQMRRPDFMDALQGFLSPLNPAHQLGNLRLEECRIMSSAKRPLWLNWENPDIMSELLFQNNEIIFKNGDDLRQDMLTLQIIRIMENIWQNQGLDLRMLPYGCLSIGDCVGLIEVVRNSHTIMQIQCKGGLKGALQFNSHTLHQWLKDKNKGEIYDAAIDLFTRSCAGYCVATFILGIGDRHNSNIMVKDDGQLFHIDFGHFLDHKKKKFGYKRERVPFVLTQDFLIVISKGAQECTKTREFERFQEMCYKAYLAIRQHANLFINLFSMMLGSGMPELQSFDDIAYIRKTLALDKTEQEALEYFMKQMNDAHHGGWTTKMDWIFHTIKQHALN
T33 sequence (Q9UPE1 whole entry): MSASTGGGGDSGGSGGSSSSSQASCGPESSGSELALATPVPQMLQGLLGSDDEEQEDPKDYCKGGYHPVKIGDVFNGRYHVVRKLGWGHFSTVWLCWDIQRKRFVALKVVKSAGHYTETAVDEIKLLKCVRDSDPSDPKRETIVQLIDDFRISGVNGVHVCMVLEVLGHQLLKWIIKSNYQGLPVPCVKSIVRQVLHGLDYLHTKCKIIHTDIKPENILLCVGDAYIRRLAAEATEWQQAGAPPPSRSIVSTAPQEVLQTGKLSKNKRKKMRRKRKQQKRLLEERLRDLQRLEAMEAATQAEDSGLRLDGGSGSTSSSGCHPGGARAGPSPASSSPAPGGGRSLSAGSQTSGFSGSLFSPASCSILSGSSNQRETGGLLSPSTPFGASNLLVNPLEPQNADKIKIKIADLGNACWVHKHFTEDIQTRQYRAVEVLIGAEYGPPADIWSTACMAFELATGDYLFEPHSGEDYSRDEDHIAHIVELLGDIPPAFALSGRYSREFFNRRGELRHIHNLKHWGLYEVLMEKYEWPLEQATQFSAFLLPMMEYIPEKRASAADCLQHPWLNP
T27 sequence (Q9NYY3 whole entry): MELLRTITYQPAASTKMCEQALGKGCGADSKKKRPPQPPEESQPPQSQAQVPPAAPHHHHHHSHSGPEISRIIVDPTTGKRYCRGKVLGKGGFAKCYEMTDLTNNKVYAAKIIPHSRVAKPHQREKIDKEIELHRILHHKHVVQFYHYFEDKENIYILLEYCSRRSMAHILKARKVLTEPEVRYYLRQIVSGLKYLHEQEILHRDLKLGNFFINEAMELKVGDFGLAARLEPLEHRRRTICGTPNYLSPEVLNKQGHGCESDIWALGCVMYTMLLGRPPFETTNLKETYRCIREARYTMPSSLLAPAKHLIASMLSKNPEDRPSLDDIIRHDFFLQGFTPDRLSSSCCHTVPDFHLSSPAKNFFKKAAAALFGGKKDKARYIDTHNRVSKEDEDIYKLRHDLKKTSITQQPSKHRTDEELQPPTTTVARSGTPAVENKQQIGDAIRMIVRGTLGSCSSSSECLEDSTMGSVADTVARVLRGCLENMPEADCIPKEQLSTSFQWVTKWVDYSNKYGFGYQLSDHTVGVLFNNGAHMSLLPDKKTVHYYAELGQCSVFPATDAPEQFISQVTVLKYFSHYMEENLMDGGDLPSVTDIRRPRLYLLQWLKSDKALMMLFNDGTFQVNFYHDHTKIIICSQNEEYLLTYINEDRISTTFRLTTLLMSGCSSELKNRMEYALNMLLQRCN
T31 sequence (P08922 28-2347): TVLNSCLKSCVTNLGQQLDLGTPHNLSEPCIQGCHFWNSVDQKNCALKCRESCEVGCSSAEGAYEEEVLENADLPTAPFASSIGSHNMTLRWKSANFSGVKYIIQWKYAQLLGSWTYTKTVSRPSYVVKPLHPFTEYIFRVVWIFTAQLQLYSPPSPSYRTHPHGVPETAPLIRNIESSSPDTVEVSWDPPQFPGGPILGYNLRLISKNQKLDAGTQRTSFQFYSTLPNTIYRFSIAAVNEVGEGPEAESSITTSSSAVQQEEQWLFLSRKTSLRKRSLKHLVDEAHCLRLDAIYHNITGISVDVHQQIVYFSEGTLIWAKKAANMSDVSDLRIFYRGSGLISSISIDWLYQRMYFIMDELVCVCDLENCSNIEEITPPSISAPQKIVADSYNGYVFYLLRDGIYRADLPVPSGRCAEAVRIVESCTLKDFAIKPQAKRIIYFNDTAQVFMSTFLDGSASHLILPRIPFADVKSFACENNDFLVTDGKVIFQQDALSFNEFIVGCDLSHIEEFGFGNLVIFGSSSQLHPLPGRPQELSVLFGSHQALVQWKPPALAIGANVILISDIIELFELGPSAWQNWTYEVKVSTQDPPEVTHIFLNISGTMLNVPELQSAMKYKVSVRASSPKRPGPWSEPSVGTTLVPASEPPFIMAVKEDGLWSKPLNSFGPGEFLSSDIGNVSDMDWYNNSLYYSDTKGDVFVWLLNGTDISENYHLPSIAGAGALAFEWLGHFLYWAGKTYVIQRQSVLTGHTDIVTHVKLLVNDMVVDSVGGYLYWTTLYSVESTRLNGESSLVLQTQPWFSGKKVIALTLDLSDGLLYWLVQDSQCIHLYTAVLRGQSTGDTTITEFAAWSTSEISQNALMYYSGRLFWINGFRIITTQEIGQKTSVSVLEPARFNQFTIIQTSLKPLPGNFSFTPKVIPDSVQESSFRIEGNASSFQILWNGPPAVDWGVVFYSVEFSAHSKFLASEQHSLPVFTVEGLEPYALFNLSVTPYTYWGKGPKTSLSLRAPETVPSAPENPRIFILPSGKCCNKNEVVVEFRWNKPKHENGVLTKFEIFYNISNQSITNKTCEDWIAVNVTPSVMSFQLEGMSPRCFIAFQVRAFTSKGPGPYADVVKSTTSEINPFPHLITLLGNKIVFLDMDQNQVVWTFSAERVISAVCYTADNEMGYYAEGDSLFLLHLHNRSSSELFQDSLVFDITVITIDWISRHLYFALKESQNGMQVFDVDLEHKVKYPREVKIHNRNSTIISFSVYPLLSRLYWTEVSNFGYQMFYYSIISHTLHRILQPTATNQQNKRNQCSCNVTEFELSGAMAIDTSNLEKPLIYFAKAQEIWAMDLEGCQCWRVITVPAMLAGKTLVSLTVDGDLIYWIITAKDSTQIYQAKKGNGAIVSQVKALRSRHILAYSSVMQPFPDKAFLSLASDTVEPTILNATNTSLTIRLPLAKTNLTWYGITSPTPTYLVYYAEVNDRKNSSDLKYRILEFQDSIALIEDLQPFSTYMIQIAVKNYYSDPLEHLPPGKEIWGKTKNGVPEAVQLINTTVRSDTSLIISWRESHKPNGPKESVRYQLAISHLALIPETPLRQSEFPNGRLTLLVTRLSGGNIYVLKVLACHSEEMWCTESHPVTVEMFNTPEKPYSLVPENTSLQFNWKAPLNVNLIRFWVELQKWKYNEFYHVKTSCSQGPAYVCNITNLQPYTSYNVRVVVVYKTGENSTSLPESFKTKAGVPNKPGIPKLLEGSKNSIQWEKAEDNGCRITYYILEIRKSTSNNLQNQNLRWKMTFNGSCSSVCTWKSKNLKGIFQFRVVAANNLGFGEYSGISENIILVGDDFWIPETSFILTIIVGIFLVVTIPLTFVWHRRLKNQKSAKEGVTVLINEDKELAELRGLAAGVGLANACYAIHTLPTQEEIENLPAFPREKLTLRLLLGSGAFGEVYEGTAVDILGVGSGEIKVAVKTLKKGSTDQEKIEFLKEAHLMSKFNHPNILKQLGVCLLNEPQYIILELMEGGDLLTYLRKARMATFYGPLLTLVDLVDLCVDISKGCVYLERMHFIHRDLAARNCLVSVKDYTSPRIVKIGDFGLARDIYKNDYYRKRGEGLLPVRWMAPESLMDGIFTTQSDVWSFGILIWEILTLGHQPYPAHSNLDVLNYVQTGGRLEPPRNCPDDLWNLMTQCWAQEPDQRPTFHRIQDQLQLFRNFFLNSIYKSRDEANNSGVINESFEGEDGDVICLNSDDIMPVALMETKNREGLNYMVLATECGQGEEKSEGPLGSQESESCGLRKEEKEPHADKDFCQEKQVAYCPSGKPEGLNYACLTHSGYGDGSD
T24 sequence (Q15208 whole entry): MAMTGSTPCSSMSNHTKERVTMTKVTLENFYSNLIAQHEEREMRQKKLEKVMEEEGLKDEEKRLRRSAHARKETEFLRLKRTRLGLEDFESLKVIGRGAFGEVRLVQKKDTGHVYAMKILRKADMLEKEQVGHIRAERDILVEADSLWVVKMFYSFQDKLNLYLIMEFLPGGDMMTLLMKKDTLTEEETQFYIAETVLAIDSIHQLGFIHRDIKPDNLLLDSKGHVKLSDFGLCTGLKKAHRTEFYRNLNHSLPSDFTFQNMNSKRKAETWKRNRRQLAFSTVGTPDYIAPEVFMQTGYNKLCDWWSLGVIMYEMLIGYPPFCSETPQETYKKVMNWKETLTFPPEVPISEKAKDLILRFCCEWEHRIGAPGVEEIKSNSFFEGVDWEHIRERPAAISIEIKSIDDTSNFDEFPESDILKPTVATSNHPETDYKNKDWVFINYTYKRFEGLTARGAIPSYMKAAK

Cc1ccccc1-n1c(C(C)Nc2nc(N)nc3nc[nH]c23)nc2cccc(C)c2c1=O (stereo not shown) [CAL-130]
Percent of Control Binding (ABL1): 100%
Percent of Control Binding (ABL1(M351T)): 100%
Percent of Control Binding (AKT1): 100%
Percent of Control Binding (BIKE): 100%
Percent of Control Binding (BMPR1A): 100%
Percent of Control Binding (BRAF): 100%
Percent of Control Binding (CDK8): 100%
Percent of Control Binding (CSNK1D): 100%
Percent of Control Binding (CSNK1E): 100%
Percent of Control Binding (CSNK1G1): 100%
Percent of Control Binding (DYRK1B): 100%
Percent of Control Binding (EGFR(E746-A750DEL)): 100%
Percent of Control Binding (EPHB4): 100%
Percent of Control Binding (ERBB2): 100%
Percent of Control Binding (ERK1): 100%
Percent of Control Binding (ERK8): 100%
Percent of Control Binding (FER): 100%
Percent of Control Binding (FGFR1): 100%
Percent of Control Binding (FGFR2): 100%
Percent of Control Binding (MARK3): 100%
Percent of Control Binding (MEK1): 100%
Percent of Control Binding (MST1): 100%
Percent of Control Binding (MST3): 100%
Percent of Control Binding (NDR1): 100%
Percent of Control Binding (PAK6): 100%
Percent of Control Binding (PIK3CA; PI3KCA (Table 2)): 12%
Percent of Control Binding (PIK3CA; PIK3CA (Table 1)): 12%
Percent of Control Binding (PLK2): 100%
Percent of Control Binding (PRKCH): 100%
Percent of Control Binding (PRKR): 100%
Percent of Control Binding (ROCK1): 100%
Percent of Control Binding (ROS1): 100%
Percent of Control Binding (SRPK1): 100%
Percent of Control Binding (SRPK3): 100%
Percent of Control Binding (TAO1): 100%
Percent of Control Binding (TRKA): 100%
Percent of Control Binding (VEGFR2): 100%
